Reference: US20260262643A1, “HERBICIDAL BENZOXAZINES” (FMC CORPORATION, priority 2022, published 2026)

How the values were obtained:
soybean [1] = test: Test C postemergence; type: in vivo, Glycine max; conditions: 10 days, 0 to 100 scale (0 no effect, 100 complete control)
Summary of the method: (§1)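 Test material, in non-phytotoxic solvent with surfactant, was sprayed on the soil directly after seeding (preemergence) or on young plants of 2–10 cm with one to two leaves (postemergence). Greenhouse, 10 days; 0–100 visual control scale.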

rice = test: Test D flooded paddy test; type: in vivo, Oryza sativa; conditions: 250 g ai/ha, applied to paddy water, visual rating after 13 to 14 days, scale 0 to 100 (0 no effect, 100 complete control)
Summary of the method: (§2)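 Visual ratings from 0, meaning no effect, to 100, meaning complete control, were assigned against untreated controls 13 to 14 days after compounds were added to the floodwater of pots kept 3 cm deep, with plants at the 2-leaf stage.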

sedge, umbrella = test: Test D flooded paddy test; type: in vivo, Cyperus difformis; conditions: 250 g ai/ha, applied to paddy water, visual rating after 13 to 14 days, scale 0 to 100 (0 no effect, 100 complete control)
Summary of the method: as §2

pigweed, palmer [2] = test: Test C preemergence; type: in vivo, Amaranthus palmeri
Summary of the method: as §1

barnyardgrass [3] = test: Test D flooded paddy test; type: in vivo, Echinochloa crus-galli; conditions: 250 g ai/ha, applied to paddy water, visual rating after 13 to 14 days, scale 0 to 100 (0 no effect, 100 complete control)
Summary of the method: as §2

horseweed = test: Test C postemergence; type: in vivo, Erigeron canadensis; conditions: 10 days, 0 to 100 scale (0 no effect, 100 complete control)
Summary of the method: as §1

kochia [4] = test: Test C postemergence; type: in vivo, Bassia scoparia; conditions: 10 days, 0 to 100 scale (0 no effect, 100 complete control)
Summary of the method: as §1

oat, wild [5] = test: Test C preemergence; type: in vivo, Avena fatua
Summary of the method: as §1

ryegrass, Italian [6] = test: Test C postemergence; type: in vivo, Lolium multiflorum; conditions: 10 days, 0 to 100 scale (0 no effect, 100 complete control)
Summary of the method: as §1

soybean [7] = test: Test C preemergence; type: in vivo, Glycine max
Summary of the method: as §1

ducksalad = test: Test D flooded paddy test; type: in vivo, Heteranthera limosa; conditions: 250 g ai/ha, applied to paddy water, visual rating after 13 to 14 days, scale 0 to 100 (0 no effect, 100 complete control)
Summary of the method: as §2

green foxtail [8] = test: Test C preemergence; type: in vivo, Setaria viridis
Summary of the method: as §1

pigweed, palmer [9] = test: Test C postemergence; type: in vivo, Amaranthus palmeri; conditions: 10 days, 0 to 100 scale (0 no effect, 100 complete control)
Summary of the method: as §1

barnyardgrass [10] = test: Test C preemergence; type: in vivo, Echinochloa crusgalli
Summary of the method: as §1

wheat [11] = test: Test C preemergence; type: in vivo, Triticum aestivum
Summary of the method: as §1

ragweed [12] = test: Test C preemergence; type: in vivo, Ambrosia artemisiifolia
Summary of the method: as §1

oat, wild [13] = test: Test C postemergence; type: in vivo, Avena fatua; conditions: 10 days, 0 to 100 scale (0 no effect, 100 complete control)
Summary of the method: as §1

corn [14] = test: Test C preemergence; type: in vivo, Zea mays
Summary of the method: as §1

corn [15] = test: Test C postemergence; type: in vivo, Zea mays; conditions: 10 days, 0 to 100 scale (0 no effect, 100 complete control)
Summary of the method: as §1

green foxtail [16] = test: Test C postemergence; type: in vivo, Setaria viridis; conditions: 10 days, 0 to 100 scale (0 no effect, 100 complete control)
Summary of the method: as §1

blackgrass [17] = test: Test C postemergence; type: in vivo, Alopecurus myosuroides; conditions: 10 days, 0 to 100 scale (0 no effect, 100 complete control)
Summary of the method: as §1

ryegrass, Italian [18] = test: Test C preemergence; type: in vivo, Lolium multiflorum
Summary of the method: as §1

wheat [19] = test: Test C postemergence; type: in vivo, Triticum aestivum; conditions: 10 days, 0 to 100 scale (0 no effect, 100 complete control)
Summary of the method: as §1

galium = test: Test C postemergence; type: in vivo, Galium aparine; conditions: 10 days, 0 to 100 scale (0 no effect, 100 complete control)
Summary of the method: as §1

kochia [20] = test: Test C preemergence; type: in vivo, Bassia scoparia
Summary of the method: as §1

ragweed [21] = test: Test C postemergence; type: in vivo, Ambrosia artemisiifolia; conditions: 10 days, 0 to 100 scale (0 no effect, 100 complete control)
Summary of the method: as §1

barnyardgrass [22] = test: Test C postemergence; type: in vivo, Echinochloa crusgalli; conditions: 10 days, 0 to 100 scale (0 no effect, 100 complete control)
Summary of the method: as §1

blackgrass [23] = test: Test C preemergence; type: in vivo, Alopecurus myosuroides
Summary of the method: as §1

[24] = 500 g ai/ha, preemergence, 0 to 100 scale (0 no effect, 100 complete control)
[25] = Preemergence, 125 g ai/ha, 0 to 100 scale, 0 no effect, 100 complete control

COC(C)(C)c1ncn(-c2ccc(C)c(C(=O)N3C[C@H](C)Oc4c(Cl)cccc43)c2)n1 [Compound 343]
Plant response rating, Soybean (soybean [1]; 500 g ai/ha, postemergence): 100 | Plant response rating, Soybean (soybean [1]; Postemergence, 125 g ai/ha): 100 | Plant response rating, Rice (Flood) (rice): 15 | Plant response rating, Sedge, Umbrella (Flood) (sedge, umbrella): 65 | Pigweed, Palmer plant response rating (pigweed, palmer [2]; [24]): 100 | Plant response rating, Pigweed, Palmer (pigweed, palmer [2]; [25]): 100 | Plant response rating, Barnyardgrass (Flood) (barnyardgrass [3]): 35 | Plant response rating, Horseweed (horseweed; 500 g ai/ha, postemergence): 80 | Plant response rating, Horseweed (horseweed; Postemergence, 125 g ai/ha): 30 | Plant response rating, Kochia (kochia [4]; 500 g ai/ha, postemergence): 90 | Plant response rating, Kochia (kochia [4]; Postemergence, 125 g ai/ha): 80 | Oat, Wild plant response rating (oat, wild [5]; [24]): 90 | Plant response rating, Oat, Wild (oat, wild [5]; [25]): 90 | Plant response rating, Ryegrass, Italian (ryegrass, Italian [6]; 500 g ai/ha, postemergence): 90 | Plant response rating, Ryegrass, Italian (ryegrass, Italian [6]; Postemergence, 125 g ai/ha): 70 | Soybean plant response rating (soybean [7]; [24]): 100 | Plant response rating, Soybean (soybean [7]; [25]): 30 | Plant response rating, Ducksalad (Flood) (ducksalad): 45 | Foxtail, Green plant response rating (green foxtail [8]; [24]): 100 | Plant response rating, Foxtail, Green (green foxtail [8]; [25]): 100 | Plant response rating, Pigweed, Palmer (pigweed, palmer [9]; 500 g ai/ha, postemergence): 100 | Plant response rating, Pigweed, Palmer (pigweed, palmer [9]; Postemergence, 125 g ai/ha): 50 | Barnyardgrass plant response rating (barnyardgrass [10]; [24]): 100 | Plant response rating, Barnyardgrass (barnyardgrass [10]; [25]): 100 | Wheat plant response rating (wheat [11]; [24]): 90 | Plant response rating, Wheat (wheat [11]; [25]): 30 | Ragweed plant response rating (ragweed [12]; [24]): 70 | Plant response rating, Ragweed (ragweed [12]; [25]): 30 | Plant response rating, Oat, Wild (oat, wild [13]; 500 g ai/ha, postemergence): 90 | Plant response rating, Oat, Wild (oat, wild [13]; Postemergence, 125 g ai/ha): 60 | Corn plant response rating (corn [14]; [24]): 60 | Plant response rating, Corn (corn [14]; [25]): 40 | Plant response rating, Corn (corn [15]; 500 g ai/ha, postemergence): 100 | Plant response rating, Corn (corn [15]; Postemergence, 125 g ai/ha): 90 | Plant response rating, Foxtail, Green (green foxtail [16]; 500 g ai/ha, postemergence): 90 | Plant response rating, Foxtail, Green (green foxtail [16]; Postemergence, 125 g ai/ha): 50 | Plant response rating, Blackgrass (blackgrass [17]; 500 g ai/ha, postemergence): 90 | Plant response rating, Blackgrass (blackgrass [17]; Postemergence, 125 g ai/ha): 40 | Ryegrass, Italian plant response rating (ryegrass, Italian [18]; [24]): 100 | Plant response rating, Ryegrass, Italian (ryegrass, Italian [18]; [25]): 100 | Plant response rating, Wheat (wheat [19]; 500 g ai/ha, postemergence): 60 | Plant response rating, Wheat (wheat [19]; Postemergence, 125 g ai/ha): 20 | Plant response rating, Galium (galium; 500 g ai/ha, postemergence): 100 | Plant response rating, Galium (galium; Postemergence, 125 g ai/ha): 100 | Kochia plant response rating (kochia [20]; [24]): 100 | Plant response rating, Kochia (kochia [20]; [25]): 90 | Plant response rating, Ragweed (ragweed [21]; 500 g ai/ha, postemergence): 80 | Plant response rating, Ragweed (ragweed [21]; Postemergence, 125 g ai/ha): 60 | Plant response rating, Barnyardgrass (barnyardgrass [22]; 500 g ai/ha, postemergence): 70 | Plant response rating, Barnyardgrass (barnyardgrass [22]; Postemergence, 125 g ai/ha): 20 | Blackgrass plant response rating (blackgrass [23]; [24]): 90 | Plant response rating, Blackgrass (blackgrass [23]; [25]): 50
